In patent US11427558B1, “Indazoles and azaindazoles as LRRK2 inhibitors” (ESCAPE Bio, Inc., priority 2019, dated 2022):

How the values were obtained:
[1] = target: Recombinant G2019S-LRRK2 protein (Homo sapiens (Human), UniProt Q5S007, G2019S); experiment: LRRK2 kinase activity, LanthaScreen TR-FRET assay (G2019S); type: biochemical; conditions: LRRKtide 400 nM, 25 μM ATP, 60 min
In short: (§1)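 Recombinant human wild-type or G2019S LRRK2 phosphorylated fluorescein-labelled LRRKtide (ERM-based) with ATP and serially diluted compound for 60 min at room temperature.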

[2] = target: Recombinant wild type LRRK2 protein (Homo sapiens (Human), UniProt Q5S007); experiment: LRRK2 kinase activity, LanthaScreen TR-FRET assay (wild type); type: biochemical; conditions: LRRKtide 400 nM, 25 μM ATP, 60 min; read-out: LRRK2 WT IC50
Chain of Recombinant wild type LRRK2 protein (Q5S007 whole entry): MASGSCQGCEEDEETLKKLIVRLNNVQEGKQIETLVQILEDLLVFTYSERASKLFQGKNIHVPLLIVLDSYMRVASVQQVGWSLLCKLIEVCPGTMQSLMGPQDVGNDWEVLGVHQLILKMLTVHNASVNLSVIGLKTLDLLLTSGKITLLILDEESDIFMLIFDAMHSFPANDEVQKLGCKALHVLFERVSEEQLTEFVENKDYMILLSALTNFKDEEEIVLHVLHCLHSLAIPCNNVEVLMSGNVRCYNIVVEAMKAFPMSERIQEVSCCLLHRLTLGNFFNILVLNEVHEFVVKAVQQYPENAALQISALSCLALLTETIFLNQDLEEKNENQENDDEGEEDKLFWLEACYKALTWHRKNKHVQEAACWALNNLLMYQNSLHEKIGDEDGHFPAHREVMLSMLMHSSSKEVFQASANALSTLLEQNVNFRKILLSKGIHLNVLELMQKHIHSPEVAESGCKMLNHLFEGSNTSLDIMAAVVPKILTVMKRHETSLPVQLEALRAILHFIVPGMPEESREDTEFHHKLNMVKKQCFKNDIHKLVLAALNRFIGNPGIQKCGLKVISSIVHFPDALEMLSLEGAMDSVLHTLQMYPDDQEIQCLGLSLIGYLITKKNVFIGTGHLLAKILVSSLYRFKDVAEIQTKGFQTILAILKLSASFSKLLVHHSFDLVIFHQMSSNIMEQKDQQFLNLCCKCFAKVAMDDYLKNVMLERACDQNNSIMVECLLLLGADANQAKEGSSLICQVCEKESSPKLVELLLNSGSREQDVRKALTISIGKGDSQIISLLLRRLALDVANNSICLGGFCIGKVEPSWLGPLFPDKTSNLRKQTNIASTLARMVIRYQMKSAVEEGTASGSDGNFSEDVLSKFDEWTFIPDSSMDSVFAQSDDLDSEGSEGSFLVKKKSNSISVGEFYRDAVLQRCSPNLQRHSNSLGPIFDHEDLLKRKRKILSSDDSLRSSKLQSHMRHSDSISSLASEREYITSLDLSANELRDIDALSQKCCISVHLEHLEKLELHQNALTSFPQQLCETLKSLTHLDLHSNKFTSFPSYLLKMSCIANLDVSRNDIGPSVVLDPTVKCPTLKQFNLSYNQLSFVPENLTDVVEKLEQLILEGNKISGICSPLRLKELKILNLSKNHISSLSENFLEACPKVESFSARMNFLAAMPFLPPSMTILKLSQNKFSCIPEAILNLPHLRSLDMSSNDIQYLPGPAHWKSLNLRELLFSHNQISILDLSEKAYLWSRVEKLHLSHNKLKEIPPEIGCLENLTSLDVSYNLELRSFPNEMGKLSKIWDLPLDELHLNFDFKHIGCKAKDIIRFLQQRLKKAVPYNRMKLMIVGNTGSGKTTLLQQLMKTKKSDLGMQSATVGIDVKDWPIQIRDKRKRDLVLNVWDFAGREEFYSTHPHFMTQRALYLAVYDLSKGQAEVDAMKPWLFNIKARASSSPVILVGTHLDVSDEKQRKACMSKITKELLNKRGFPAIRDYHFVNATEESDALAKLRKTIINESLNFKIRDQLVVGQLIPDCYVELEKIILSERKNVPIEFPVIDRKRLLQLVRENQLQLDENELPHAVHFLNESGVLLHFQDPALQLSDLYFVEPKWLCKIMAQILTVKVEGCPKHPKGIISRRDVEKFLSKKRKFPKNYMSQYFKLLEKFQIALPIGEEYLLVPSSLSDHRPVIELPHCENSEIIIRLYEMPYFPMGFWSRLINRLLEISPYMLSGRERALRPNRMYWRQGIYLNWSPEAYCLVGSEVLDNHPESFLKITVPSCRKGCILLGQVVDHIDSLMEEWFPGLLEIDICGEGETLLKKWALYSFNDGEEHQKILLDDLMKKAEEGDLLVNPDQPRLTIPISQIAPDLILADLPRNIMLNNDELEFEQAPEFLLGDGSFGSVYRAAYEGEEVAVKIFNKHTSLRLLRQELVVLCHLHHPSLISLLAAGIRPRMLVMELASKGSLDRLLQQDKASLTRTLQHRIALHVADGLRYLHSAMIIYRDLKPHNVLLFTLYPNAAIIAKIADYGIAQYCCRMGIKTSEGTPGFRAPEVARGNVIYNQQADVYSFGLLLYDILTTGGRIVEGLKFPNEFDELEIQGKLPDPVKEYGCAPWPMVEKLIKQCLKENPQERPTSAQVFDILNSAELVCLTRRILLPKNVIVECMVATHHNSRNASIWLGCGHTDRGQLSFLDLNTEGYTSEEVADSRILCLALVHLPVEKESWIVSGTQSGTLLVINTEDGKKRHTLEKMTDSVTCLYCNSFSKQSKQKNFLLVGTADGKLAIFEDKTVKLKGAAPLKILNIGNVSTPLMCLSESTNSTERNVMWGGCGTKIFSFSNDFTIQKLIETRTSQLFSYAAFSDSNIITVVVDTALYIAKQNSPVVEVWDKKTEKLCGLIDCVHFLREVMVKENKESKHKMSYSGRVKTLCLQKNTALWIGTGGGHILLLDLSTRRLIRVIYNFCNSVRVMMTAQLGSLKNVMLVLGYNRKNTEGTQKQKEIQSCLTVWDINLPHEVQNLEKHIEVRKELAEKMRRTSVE
In short: as §1

Chain of Recombinant G2019S-LRRK2 protein (Q5S007 whole entry G2019S): as the sequence (Q5S007 whole entry) above, with G2019S counted along it

| Compound | IC50 [1] | IC50 [2] |
| --- | --- | --- |
| Cc1ccc(C#N)c(F)c1C(=O)Nc1ccc2[nH]nc(-c3ccoc3)c2c1 [Example 128, 3-Cyano-2-fluoro-N-(3-(furan-3-yl)-1H-indazol-5-yl)-6-methylbenzamide] | < 100 nM | < 100 nM |
| Cc1ncc(-c2n[nH]c3ccc(NC(=O)c4ncc(C#N)cc4C)cc23)o1 [Example 129, 5-Cyano-3-methyl-N-(3-(2-methyloxazol-5-yl)-1H-indazol-5-yl)picolinamide] | < 100 nM | < 100 nM |
| Cc1cc(C#N)cnc1C(=O)Nc1ccc2[nH]nc(-c3cc(C#N)cs3)c2c1 [Example 130, 5-Cyano-N-(3-(4-cyanothiophen-2-yl)-1H-indazol-5-yl)-3-methylpicolinamide] | < 100 nM | < 100 nM |
| Cc1cc(C#N)cnc1C(=O)Nc1ccc2[nH]nc(-c3ccc(C#N)s3)c2c1 [Example 131, 5-Cyano-N-(3-(5-cyanothiophen-2-yl)-1H-indazol-5-yl)-3-methylpicolinamide] | < 100 nM | 100 to 1000 nM |
| N#Cc1ccnc(C(=O)Nc2ccc3[nH]nc(-c4ccoc4)c3c2)n1 [Example 132, 4-Cyano-N-(3-(furan-3-yl)-1H-indazol-5-yl)pyrimidine-2-carboxamide] | < 100 nM | < 100 nM |
| Cc1c(C(=O)Nc2ccc3[nH]nc(-c4ccoc4)c3c2)n[nH]c1C#N [Example 133, 5-Cyano-N-(3-(furan-3-yl)-1H-indazol-5-yl)-4-methyl-1H-pyrazole-3-carboxamide] | < 100 nM | 100 to 1000 nM |
| Cc1c(C#N)ccc(F)c1C(=O)Nc1ccc2[nH]nc(-c3ccoc3)c2c1 [Example 134, 3-Cyano-6-fluoro-N-(3-(furan-3-yl)-1H-indazol-5-yl)-2-methylbenzamide] | < 100 nM | < 100 nM |
| Cc1cc(C#N)cnc1C(=O)Nc1ccc2[nH]nc(NC(=O)c3ccccc3)c2c1 [Example 135, N-(3-Benzamido-1H-indazol-5-yl)-5-cyano-3-methylpicolinamide] | 100 to 1000 nM | 1000 to 10000 nM |
| Cc1cc(C#N)cnc1C(=O)Nc1ccc2[nH]nc(-n3cccn3)c2c1 [Example 136, N-(3-(1H-Pyrazol-1-yl)-1H-indazol-5-yl)-5-cyano-3-methylpicolinamide] | 100 to 1000 nM | 1000 to 10000 nM |
| Cc1n[nH]c(C#N)c1C(=O)Nc1ccc2[nH]nc(-c3ccoc3)c2c1 [Example 137, 5-Cyano-N-(3-(furan-3-yl)-1H-indazol-5-yl)-3-methyl-1H-pyrazole-4-carboxamide] | < 100 nM | < 100 nM |
| N#Cc1cnc(C(=O)Nc2ccc3[nH]nc(-c4ccoc4)c3c2)c(Br)c1 [Example 138, 3-Bromo-5-cyano-N-(3-(furan-3-yl)-1H-indazol-5-yl)picolinamide] | < 100 nM | < 100 nM |
| Cc1cc(C#N)cnc1C(=O)Nc1ccc2[nH]nc(-c3ccc(Cl)s3)c2c1 [Example 139, N-(3-(5-Chlorothiophen-2-yl)-1H-indazol-5-yl)-5-cyano-3-methylpicolinamide] | < 100 nM | 1000 to 10000 nM |
| Cc1ncc(-c2n[nH]c3ccc(NC(=O)c4ncc(C#N)cc4C)cc23)s1 [Example 140, 5-Cyano-3-methyl-N-(3-(2-methylthiazol-5-yl)-1H-indazol-5-yl)picolinamide] | < 100 nM | < 100 nM |
| Cc1ccc(-c2n[nH]c3ccc(NC(=O)c4ncc(C#N)cc4C)cc23)o1 [Example 141, 5-Cyano-3-methyl-N-(3-(5-methylfuran-2-yl)-1H-indazol-5-yl)picolinamide] | < 100 nM | < 100 nM |
| N#Cc1ccc(C(=O)Nc2ccc3[nH]nc(-c4ccoc4)c3c2)c2ncccc12 [Example 142, 5-Cyano-N-(3-(furan-3-yl)-1H-indazol-5-yl)quinoline-8-carboxamide] | < 100 nM | 100 to 1000 nM |
| Cc1cc(C#N)cnc1C(=O)Nc1cc(F)c2[nH]nc(-c3ccoc3)c2c1 [Example 143, 5-Cyano-N-(7-fluoro-3-(furan-3-yl)-1H-indazol-5-yl)-3-methylpicolinamide] | < 100 nM | 100 to 1000 nM |
| N#Cc1ccnc(C(=O)Nc2ccc3[nH]nc(-c4ccoc4)c3c2)c1Cl [Example 144, 3-Chloro-4-cyano-N-(3-(furan-3-yl)-1H-indazol-5-yl)picolinamide] | < 100 nM | < 100 nM |
| Cc1nc(C#N)cnc1C(=O)Nc1ccc2[nH]nc(-c3ccoc3)c2c1 [Example 145, 5-Cyano-N-(3-(furan-3-yl)-1H-indazol-5-yl)-3-methylpyrazine-2-carboxamide] | < 100 nM | < 100 nM |
| Cc1cc(C#N)cnc1C(=O)Nc1ccc2[nH]nc(-c3cnoc3)c2c1 [Example 146, 5-Cyano-N-(3-(isoxazol-4-yl)-1H-indazol-5-yl)-3-methylpicolinamide] | < 100 nM | 100 to 1000 nM |
| Cc1ncc(C#N)nc1C(=O)Nc1ccc2[nH]nc(-c3ccoc3)c2c1 [Example 147, 6-Cyano-N-(3-(furan-3-yl)-1H-indazol-5-yl)-3-methylpyrazine-2-carboxamide] | < 100 nM | < 100 nM |

| Compound | IC50 [1] | IC50 [2] |
| --- | --- | --- |
| Cc1ccc(C#N)nc1C(=O)Nc1ccc2[nH]nc(-c3ccoc3)c2c1 [Example 148, 6-Cyano-N-(3-(furan-3-yl)-1H-indazol-5-yl)-3-methylpicolinamide] | < 100 nM | < 100 nM |
| CCc1c(C#N)ccnc1C(=O)Nc1ccc2[nH]nc(-c3ccoc3)c2c1 [Example 149, 4-Cyano-3-ethyl-N-(3-(furan-3-yl)-1H-indazol-5-yl)picolinamide] | < 100 nM | 100 to 1000 nM |
| C#Cc1cc(C#N)cnc1C(=O)Nc1ccc2[nH]nc(-c3ccoc3)c2c1 [Example 150] | 100 to 1000 nM | 100 to 1000 nM |
| Cc1cc(C#N)cnc1C(=O)Nc1ccc2[nH]nc(-c3ccc(=O)n(C)c3)c2c1 [Example 151, 5-Cyano-3-methyl-N-(3-(1-methyl-6-oxo-1,6-dihydropyridin-3-yl)-1H-indazol-5-yl)picolinamide] | < 100 nM | 100 to 1000 nM |
| Cc1cc(C#N)cnc1C(=O)Nc1ccc2[nH]nc(-c3ccn(C)c(=O)c3)c2c1 [Example 152, 5-cyano-3-methyl-N-(3-(1-methyl-2-oxo-1,2-dihydropyridin-4-yl)-1H-indazol-5-yl)picolinamide] | 100 to 1000 nM | 1000 to 10000 nM |
| Cc1cc(C#N)cnc1C(=O)Nc1ccc2[nH]nc(-c3ccn(C)n3)c2c1 [Example 153, 5-Cyano-3-methyl-N-(3-(1-methyl-1H-pyrazol-3-yl)-1H-indazol-5-yl)picolinamide] | 100 to 1000 nM | 1000 to 10000 nM |
| N#Cc1cnc(C(=O)Nc2ccc3[nH]nc(-c4ccoc4)c3c2)c(O)c1 [Example 154, 5-Cyano-N-(3-(furan-3-yl)-1H-indazol-5-yl)-3-hydroxypicolinamide] | < 100 nM | 100 to 1000 nM |
| Cc1cc(C#N)cnc1C(=O)Nc1cc2c(-c3ccoc3)n[nH]c2cn1 [Example 155] | < 100 nM | 1000 to 10000 nM |
| Cc1cc(C#N)cnc1C(=O)Nc1ccc2[nH]nc(-c3cscn3)c2c1 [Example 156, 5-Cyano-3-methyl-N-(3-(thiazol-4-yl)-1H-indazol-5-yl)picolinamide] | 100 to 1000 nM | 100 to 1000 nM |
| Cc1c(C#N)cnc(C(=O)Nc2ccc3[nH]nc(-c4cnn(C(F)F)c4)c3c2)c1C [Example 157, 5-Cyano-N-(3-(1-(difluoromethyl)-1H-pyrazol-4-yl)-1H-indazol-5-yl)-3,4-dimethylpicolinamide] | < 100 nM | < 100 nM |
| Cc1c(C#N)cnc(C(=O)Nc2ccc3[nH]nc(-c4cnco4)c3c2)c1C [Example 158, 5-Cyano-3,4-dimethyl-N-(3-(oxazol-5-yl)-1H-indazol-5-yl)picolinamide] | < 100 nM | < 100 nM |
| COc1cc(-c2n[nH]c3ccc(NC(=O)c4ncc(C#N)c(C)c4C)cc23)ccn1 [Example 159, 5-Cyano-N-(3-(2-methoxypyridin-4-yl)-1H-indazol-5-yl)-3,4-dimethylpicolinamide] | < 100 nM | < 100 nM |
| Cc1cc(C#N)cnc1C(=O)Nc1ccc2[nH]nc(-c3cnsc3)c2c1 [Example 160, 5-Cyano-N-(3-(isothiazol-4-yl)-1H-indazol-5-yl)-3-methylpicolinamide] | < 100 nM | < 100 nM |
| Cc1cc(C#N)cnc1C(=O)Nc1ncc2[nH]nc(-c3ccoc3)c2n1 [Example 161, 5-Cyano-N-(3-(furan-3-yl)-1H-pyrazolo[4,3-d]pyrimidin-5-yl)-3-methylpicolinamide] | 100 to 1000 nM | 1000 to 10000 nM |
| Cc1cc(C#N)nnc1C(=O)Nc1ccc2[nH]nc(-c3ccoc3)c2c1 [Example 162, 6-Cyano-N-(3-(furan-3-yl)-1H-indazol-5-yl)-4-methylpyridazine-3-carboxamide] | < 100 nM | 100 to 1000 nM |
| N#Cc1ccc(F)c(C(=O)Nc2ccc3[nH]nc(-c4cnn(C(F)F)c4)c3c2)c1F [Example 163, 3-Cyano-N-(3-(1-(difluoromethyl)-1H-pyrazol-4-yl)-1H-indazol-5-yl)-2,6-difluorobenzamide] | < 100 nM | < 100 nM |
| COc1c(C#N)cccc1C(=O)Nc1ccc2[nH]nc(-c3cnn(C(F)F)c3)c2c1 [Example 164, 3-Cyano-N-(3-(1-(difluoromethyl)-1H-pyrazol-4-yl)-1H-indazol-5-yl)-2-methoxybenzamide] | < 100 nM | < 100 nM |
| N#Cc1cccc(C(=O)Nc2ccc3[nH]nc(-c4cnn(C(F)F)c4)c3c2)c1F [Example 167, 3-Cyano-N-(3-(1-(difluoromethyl)-1H-pyrazol-4-yl)-1H-indazol-5-yl)-2-fluorobenzamide] | < 100 nM | < 100 nM |
| Cc1c(C#N)cnc(C(=O)Nc2ccc3[nH]nc(-c4cnoc4)c3c2)c1C [Example 168, 5-Cyano-N-(3-(isoxazol-4-yl)-1H-indazol-5-yl)-3,4-dimethylpicolinamide] | < 100 nM | < 100 nM |
